This passage reports IC50 and EC50 results from BindingDB's records for doi:10.1016/j.ejmech.2018.09.013 (Wuhan Institute of Technology, 2018).

In the first assay the target is recombinant HIV1 reverse transcriptase Y188L mutant. Briefly: Inhibition of recombinant HIV1 reverse transcriptase Y188L mutant.
In the case of `Cc1cc(C)c(Nc2ccnc(Nc3ccc(C(N)=O)cc3)n2)c(C)c1`, the IC50 (in general, the concentration that inhibits the measured activity by half) was below 10000 nM.

Target in a further assay: not listed separately
Kind of assay: Inhibition of HIV1 reverse transcriptase K103N/Y188C double mutant infected in human MT4 cells assessed as protection against virus-induced cytopathic effect measured 5 days post infection by MTT assay. (Cytopathic effects are the visible damage that an infection or toxin causes in cultured cells.)
Regarding `CCN(c1nc(Nc2ccc(C#N)cc2)nc(Oc2c(C)cc(C)cc2C)n1)N1CCOCC1`, the EC50 (usually the concentration that produces a half-maximal response) was determined as 650 nM.

Target in another assay: not listed separately
Kind of assay: Inhibition of wild-type HIV1 3B reverse transcriptase infected in human MT4 cells harboring GFP by scanning microscopic analysis.
`CN(C)CCNC(=O)c1cnc(Nc2ccc(C#N)cc2)nc1Nc1ccc(/C=C/C#N)cc1` gave an EC50 of 0.794 nM.

Take `N#C/C=C/c1ccc(Nc2nc(Nc3ccc(C#N)cc3)ncc2C(=O)NCCCN2CCCC2)cc1`: the EC50 stood at 0.794 nM.

The compound `N#C/C=C/c1ccc(Nc2cc(NCCc3ccc(S(N)(=O)=O)cc3)nc(Nc3ccc(C#N)cc3)n2)cc1` came in with an EC50 of 16 nM.

With `N#C/C=C/c1ccc(Nc2cc(NCCCN3CCOCC3)nc(Nc3ccc(C#N)cc3)n2)cc1`, a half-maximal response (EC50) required 20 nM.

Target in a further assay: not listed separately
Kind of assay: Inhibition of HIV1 reverse transcriptase K103N mutant infected in human MT4 cells assessed as protection against virus-induced cytopathic effect by MTT assay.
`Cc1cc(Br)cc(C)c1Sc1ccnc(Nc2ccc(C#N)cc2)n1`: the IC50 worked out at 39 nM.

For `Cc1cc(C#N)cc(C)c1Nc1nc(Nc2ccc(C#N)cc2)ncc1Cl`, the IC50 came to 0.9 nM.

With `C=Cc1cnc(Nc2ccc(C#N)cc2)nc1Nc1c(C)cc(C)cc1C`, the IC50 was determined as 5.8 nM.

Turning to `Cc1cc(C#N)cc(C)c1Oc1nc(Nc2ccc(C#N)cc2)ncc1N`, the half-maximal inhibitory concentration (IC50) was 1.3 nM.

`Cc1cc(C#N)cc(C)c1Oc1nc(Nc2ccc(C#N)cc2)ncc1[N+](=O)[O-]`: the IC50 turned out to be 10 nM.

`N#Cc1ccc(Nc2cc(N)nc(Cc3c(Cl)cccc3Cl)n2)cc1`: the IC50 is above 100000 nM.

As to `Cc1cc(C#N)cc(C)c1Nc1ccnc(Nc2ccc(C#N)cc2)n1`, the IC50 came out at 1.9 nM.

For the compound `N#Cc1ccc(Nc2nc(N)nc(Cc3c(Cl)cccc3Cl)n2)cc1`, the IC50 came out at 40 nM.

Regarding `Cc1cc(C#N)cc(C)c1Oc1ccnc(Nc2ccc(C#N)cc2)n1`, the IC50 came out at 2.7 nM.

Target in a further assay: not listed separately
Briefly: Inhibition of HIV1 reverse transcriptase Y181C mutant infected in human MT4 cells harboring GFP by scanning microscopic analysis.
In turn, `CN(C)CCNC(=O)c1cnc(Nc2ccc(C#N)cc2)nc1Nc1ccc(/C=C/C#N)cc1` yielded an EC50 of 16 nM.

As for `N#C/C=C/c1ccc(Nc2nc(Nc3ccc(C#N)cc3)ncc2C(=O)NCCCN2CCCC2)cc1`, the concentration giving a half-maximal response (EC50) worked out at 20 nM.

For `N#C/C=C/c1ccc(Nc2cc(NCCc3ccc(S(N)(=O)=O)cc3)nc(Nc3ccc(C#N)cc3)n2)cc1`, the EC50 stood at 98 nM.

`N#C/C=C/c1ccc(Nc2cc(NCCCN3CCOCC3)nc(Nc3ccc(C#N)cc3)n2)cc1`: a half-maximal response (EC50) required 87 nM.

Target in the next assay: not listed separately
Kind of assay: Inhibition of HIV1 reverse transcriptase L100I/K103N double mutant infected in human MT4 cells assessed as protection against virus-induced cytopathic effect by MTT assay.
Take `Cc1cc(Br)cc(C)c1Sc1ccnc(Nc2ccc(C#N)cc2)n1`: the IC50 was found to be 3890 nM.

Consider `Cc1cc(C#N)cc(C)c1Nc1nc(Nc2ccc(C#N)cc2)ncc1Cl`, for which the IC50 was 144 nM.

With `C=Cc1cnc(Nc2ccc(C#N)cc2)nc1Nc1c(C)cc(C)cc1C`, the half-inhibitory concentration (IC50) is above 100000 nM.

Turning to `Cc1cc(C#N)cc(C)c1Oc1nc(Nc2ccc(C#N)cc2)ncc1N`, the IC50 turned out to be 282 nM.

Take `Cc1cc(C#N)cc(C)c1Oc1nc(Nc2ccc(C#N)cc2)ncc1[N+](=O)[O-]`: the IC50 was above 10000 nM.

Regarding `Cc1cc(C#N)cc(C)c1Nc1ccnc(Nc2ccc(C#N)cc2)n1`, the half-maximal inhibitory concentration (IC50) stood at 1090 nM.

For the compound `Cc1cc(C#N)cc(C)c1Oc1ccnc(Nc2ccc(C#N)cc2)n1`, the IC50 was 798 nM.

Target in a further assay: not listed separately
Kind of assay: Inhibition of HIV1 reverse transcriptase K103N/Y181C double mutant infected in human MT4 cells harboring GFP by scanning microscopic analysis.
Regarding `CN(C)CCNC(=O)c1cnc(Nc2ccc(C#N)cc2)nc1Nc1ccc(/C=C/C#N)cc1`, the EC50 stood at 20 nM.

`N#C/C=C/c1ccc(Nc2nc(Nc3ccc(C#N)cc3)ncc2C(=O)NCCCN2CCCC2)cc1`: a half-maximal response (EC50) required 16 nM.

With `N#C/C=C/c1ccc(Nc2cc(NCCc3ccc(S(N)(=O)=O)cc3)nc(Nc3ccc(C#N)cc3)n2)cc1`, the concentration for a half-maximal effect (EC50) is 91 nM.

With `N#C/C=C/c1ccc(Nc2cc(NCCCN3CCOCC3)nc(Nc3ccc(C#N)cc3)n2)cc1`, the EC50 was found to be 98 nM.

Target in a further assay: not listed separately
Kind of assay: Inhibition of HIV1 LAI reverse transcriptase infected in human MT4 cells assessed as protection against virus-induced cytopathic effect by MTT assay.
`Cc1cc(Br)cc(C)c1Sc1ccnc(Nc2ccc(C#N)cc2)n1`: the IC50 was determined as 5.7 nM.

`Cc1cc(C#N)cc(C)c1Nc1nc(Nc2ccc(C#N)cc2)ncc1Cl`: the IC50 was determined as 1.2 nM.

In the case of `C=Cc1cnc(Nc2ccc(C#N)cc2)nc1Nc1c(C)cc(C)cc1C`, the IC50 is 2.5 nM.

Turning to `Cc1cc(C#N)cc(C)c1Oc1nc(Nc2ccc(C#N)cc2)ncc1N`, the IC50 amounted to 1 nM.

As for `Cc1cc(C#N)cc(C)c1Oc1nc(Nc2ccc(C#N)cc2)ncc1[N+](=O)[O-]`, the half-maximal inhibitory concentration (IC50) was found to be 18 nM.

On to `N#Cc1ccc(Nc2cc(N)nc(Cc3c(Cl)cccc3Cl)n2)cc1`, for which the half-inhibitory concentration (IC50) worked out at 452 nM.

Turning to `Cc1cc(C#N)cc(C)c1Nc1ccnc(Nc2ccc(C#N)cc2)n1`, the IC50 was found to be 0.4 nM.

`N#Cc1ccc(Nc2nc(N)nc(Cc3c(Cl)cccc3Cl)n2)cc1`: the IC50 stood at 6 nM.

In the case of `Cc1cc(C#N)cc(C)c1Oc1ccnc(Nc2ccc(C#N)cc2)n1`, the IC50 worked out at 1.1 nM.

Target in a further assay: not listed separately
Briefly: Inhibition of HIV1 reverse transcriptase Y188L mutant infected in human MT4 cells assessed as protection against virus-induced cytopathic effect by MTT assay.
Turning to `Cc1cc(Br)cc(C)c1Sc1ccnc(Nc2ccc(C#N)cc2)n1`, the IC50 came out at 44 nM.

In the case of `Cc1cc(C#N)cc(C)c1Nc1nc(Nc2ccc(C#N)cc2)ncc1Cl`, the 50% inhibitory concentration (IC50) amounted to 4.7 nM.

Turning to `C=Cc1cnc(Nc2ccc(C#N)cc2)nc1Nc1c(C)cc(C)cc1C`, the IC50 stood at 29 nM.

Regarding `Cc1cc(C#N)cc(C)c1Oc1nc(Nc2ccc(C#N)cc2)ncc1N`, the 50% inhibitory concentration (IC50) amounted to 5.7 nM.

With `Cc1cc(C#N)cc(C)c1Oc1nc(Nc2ccc(C#N)cc2)ncc1[N+](=O)[O-]`, the IC50 stood at 782 nM.

`N#Cc1ccc(Nc2cc(N)nc(Cc3c(Cl)cccc3Cl)n2)cc1`: the IC50 is above 100000 nM.

On to `Cc1cc(C#N)cc(C)c1Nc1ccnc(Nc2ccc(C#N)cc2)n1`, for which the IC50 was 7.8 nM.

`N#Cc1ccc(Nc2nc(N)nc(Cc3c(Cl)cccc3Cl)n2)cc1`: the IC50 came out at 316 nM.

For the compound `Cc1cc(C#N)cc(C)c1Oc1ccnc(Nc2ccc(C#N)cc2)n1`, the IC50 was found to be 19 nM.

Target in the next assay: not listed separately
Kind of assay: Inhibition of wild-type HIV1 3B reverse transcriptase infected in human MT4 cells assessed as protection against virus-induced cytopathic effect measured 5 days post infection by MTT assay.
Consider `CCN(c1nc(Nc2ccc(C#N)cc2)nc(Oc2c(C)cc(C)cc2C)n1)N1CCOCC1`, for which the 50% effective concentration (EC50) came to 7.8 nM.

Target in a further assay: not listed separately
Briefly: Inhibition of HIV1 reverse transcriptase L100I mutant infected in human MT4 cells assessed as protection against virus-induced cytopathic effect by MTT assay.
For `Cc1cc(Br)cc(C)c1Sc1ccnc(Nc2ccc(C#N)cc2)n1`, the IC50 stood at 174 nM.

Regarding `Cc1cc(C#N)cc(C)c1Nc1nc(Nc2ccc(C#N)cc2)ncc1Cl`, the IC50 came out at 5.2 nM.

Turning to `C=Cc1cnc(Nc2ccc(C#N)cc2)nc1Nc1c(C)cc(C)cc1C`, the half-inhibitory concentration (IC50) is 35 nM.

Consider `Cc1cc(C#N)cc(C)c1Oc1nc(Nc2ccc(C#N)cc2)ncc1N`, for which the IC50 is 16 nM.

For `Cc1cc(C#N)cc(C)c1Oc1nc(Nc2ccc(C#N)cc2)ncc1[N+](=O)[O-]`, the IC50 worked out at 121 nM.

On to `N#Cc1ccc(Nc2cc(N)nc(Cc3c(Cl)cccc3Cl)n2)cc1`, for which the IC50 was above 100000 nM.

For `Cc1cc(C#N)cc(C)c1Nc1ccnc(Nc2ccc(C#N)cc2)n1`, the IC50 worked out at 34 nM.

Regarding `N#Cc1ccc(Nc2nc(N)nc(Cc3c(Cl)cccc3Cl)n2)cc1`, the IC50 was 398 nM.

In the case of `Cc1cc(C#N)cc(C)c1Oc1ccnc(Nc2ccc(C#N)cc2)n1`, the half-maximal inhibitory concentration (IC50) is 73 nM.

Target in the next assay: not listed separately
Kind of assay: Inhibition of HIV1 reverse transcriptase K103N mutant infected in human MT4 cells harboring GFP by scanning microscopic analysis.
`CN(C)CCNC(=O)c1cnc(Nc2ccc(C#N)cc2)nc1Nc1ccc(/C=C/C#N)cc1` displayed an EC50 of 0.631 nM.

Take `N#C/C=C/c1ccc(Nc2nc(Nc3ccc(C#N)cc3)ncc2C(=O)NCCCN2CCCC2)cc1`: it took 1 nM to reach a half-maximal effect (EC50).

`N#C/C=C/c1ccc(Nc2cc(NCCc3ccc(S(N)(=O)=O)cc3)nc(Nc3ccc(C#N)cc3)n2)cc1` yielded an EC50 of 389 nM.

Take `N#C/C=C/c1ccc(Nc2cc(NCCCN3CCOCC3)nc(Nc3ccc(C#N)cc3)n2)cc1`: a half-maximal response (EC50) required 219 nM.

Target in the next assay: not listed separately
Kind of assay: Inhibition of HIV1 reverse transcriptase Y181C mutant infected in human MT4 cells assessed as protection against virus-induced cytopathic effect by MTT assay.
For the compound `Cc1cc(Br)cc(C)c1Sc1ccnc(Nc2ccc(C#N)cc2)n1`, the IC50 stood at 68 nM.

Take `Cc1cc(C#N)cc(C)c1Nc1nc(Nc2ccc(C#N)cc2)ncc1Cl`: the concentration for half-maximal inhibition (IC50) was 14 nM.

Regarding `C=Cc1cnc(Nc2ccc(C#N)cc2)nc1Nc1c(C)cc(C)cc1C`, the IC50 is 36 nM.

For the compound `Cc1cc(C#N)cc(C)c1Oc1nc(Nc2ccc(C#N)cc2)ncc1N`, the IC50 was found to be 9.3 nM.

For the compound `Cc1cc(C#N)cc(C)c1Oc1nc(Nc2ccc(C#N)cc2)ncc1[N+](=O)[O-]`, the IC50 is 304 nM.

`N#Cc1ccc(Nc2cc(N)nc(Cc3c(Cl)cccc3Cl)n2)cc1`: the 50% inhibitory concentration (IC50) was above 100000 nM.

`Cc1cc(C#N)cc(C)c1Nc1ccnc(Nc2ccc(C#N)cc2)n1`: the IC50 was 7.1 nM.

For `N#Cc1ccc(Nc2nc(N)nc(Cc3c(Cl)cccc3Cl)n2)cc1`, the IC50 came out at 200 nM.

As for `Cc1cc(C#N)cc(C)c1Oc1ccnc(Nc2ccc(C#N)cc2)n1`, the IC50 was found to be 37 nM.

Target in a further assay: not listed separately
Briefly: Inhibition of HIV1 reverse transcriptase K103N/Y188C double mutant infected in human MT4 cells assessed as protection against virus-induced cytopathic effect by MTT assay.
As for `Cc1cc(Br)cc(C)c1Sc1ccnc(Nc2ccc(C#N)cc2)n1`, the IC50 was found to be 354 nM.

As for `Cc1cc(C#N)cc(C)c1Nc1nc(Nc2ccc(C#N)cc2)ncc1Cl`, the half-inhibitory concentration (IC50) worked out at 69 nM.

Turning to `C=Cc1cnc(Nc2ccc(C#N)cc2)nc1Nc1c(C)cc(C)cc1C`, the IC50 came out at 106 nM.

Turning to `Cc1cc(C#N)cc(C)c1Oc1nc(Nc2ccc(C#N)cc2)ncc1N`, the IC50 came out at 14 nM.

Turning to `Cc1cc(C#N)cc(C)c1Oc1nc(Nc2ccc(C#N)cc2)ncc1[N+](=O)[O-]`, the IC50 was found to be 194 nM.

In the case of `Cc1cc(C#N)cc(C)c1Nc1ccnc(Nc2ccc(C#N)cc2)n1`, the IC50 amounted to 37 nM.

For `Cc1cc(C#N)cc(C)c1Oc1ccnc(Nc2ccc(C#N)cc2)n1`, the IC50 stood at 94 nM.
